Test results: patent publication US20230009626A1 (ICHNOS SCIENCES S.A., priority 2018, published 2023)

Target: HPK1 (MAP4K1) (Homo sapiens, UniProt Q92918)
Experiment: FRET Assay for HPK1 (MAP4K1): one step binding assay, displacement of labeled tracer
Settings: for inhibition at 1 µM: 1 μM compound; for inhibition at 1 µM / inhibition at 10 µM: FRET ratio 665/620, percent of control; for inhibition at 10 µM: 10 μM compound; for IC50: dose response curve, nonlinear regression
Source text: FRET Assay for HPK1 (MAP4K1):
This is a one step binding assay based on the binding and displacement of the labeled tracer, where compound addition is followed by addition of the anti-GST tagged europium (Eu) as the donor and Alexa Fluor-labeled tracer as the acceptor. Simultaneous binding of both the tracer and GST-antibody to the kinase domain of HPK1 results in a high degree of FRET (fluorescence resonance energy transfer) from the anti-GST tagged europium (Eu) fluorophore to the Alexa Fluor® 647 fluorophore on the kinase tracer and this signal is reduced in presence of the inhibitor that can be measured.
Test compounds or reference compounds such as Sunitinib (Sigma) were dissolved in dimethylsulfoxide (DMSO) to prepare 10.0 mM stock solutions and diluted to the desired concentration. The final concentration of DMSO in the reaction was 3% (v/v). The assay mixture was prepared by mixing 4 nM of the Eu-Anti-GST Antibody and 10 nM MAP4K-1 enzyme in the Kinase buffer containing 50mM HEPES (pH 7.5), 10 mM MgCl2, 1 mM EGTA, 0.01% Brij-35 with or without the desired concentration of the compound. The reaction was incubated on ice for 15 mins. The pre-incubation step was followed by addition of the 20 nM Kinase Tracer 222 into the reaction mixture. After shaking for 5 min the reaction was further incubated for 1 hour at room temperature and this was kept at 4° C. and read on ARTEMIS reader as per the kit instructions (Thermo). […] The activity was calculated as percent of control reaction. IC50 values were calculated from dose response curve by nonlinear regression analysis using GraphPad Prism software.
Percentage inhibition at concentrations of 1.0 μM and 10.0 μM are given in the table along with IC50 (nM) details for selected examples.

Chain of HPK1 (MAP4K1) (Q92918 whole entry): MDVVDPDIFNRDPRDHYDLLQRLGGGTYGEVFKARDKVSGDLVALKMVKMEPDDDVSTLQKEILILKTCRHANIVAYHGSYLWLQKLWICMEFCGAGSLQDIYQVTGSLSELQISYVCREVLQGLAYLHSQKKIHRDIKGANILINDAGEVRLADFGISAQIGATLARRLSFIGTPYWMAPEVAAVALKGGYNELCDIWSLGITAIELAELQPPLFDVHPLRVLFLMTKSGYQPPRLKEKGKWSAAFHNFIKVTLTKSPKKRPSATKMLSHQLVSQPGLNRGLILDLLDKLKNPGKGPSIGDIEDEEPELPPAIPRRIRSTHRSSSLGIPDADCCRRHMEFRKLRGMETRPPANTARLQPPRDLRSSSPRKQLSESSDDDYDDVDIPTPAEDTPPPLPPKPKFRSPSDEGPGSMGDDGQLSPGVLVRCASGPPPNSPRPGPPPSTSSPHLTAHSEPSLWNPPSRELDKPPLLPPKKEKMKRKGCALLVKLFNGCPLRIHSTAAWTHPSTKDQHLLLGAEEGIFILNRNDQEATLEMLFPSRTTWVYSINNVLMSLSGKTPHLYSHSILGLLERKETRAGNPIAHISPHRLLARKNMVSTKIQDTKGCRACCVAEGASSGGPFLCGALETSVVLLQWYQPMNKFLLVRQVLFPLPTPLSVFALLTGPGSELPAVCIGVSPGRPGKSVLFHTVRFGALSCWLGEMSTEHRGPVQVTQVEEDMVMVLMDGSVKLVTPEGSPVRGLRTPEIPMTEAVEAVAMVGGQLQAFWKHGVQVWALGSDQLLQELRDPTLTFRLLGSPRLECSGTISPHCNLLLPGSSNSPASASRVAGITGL

inhibition at 1 µM	inhibition at 10 µM	IC50	SMILES
84.6%	87%	< 50 nM	C/C(Nc1cnn(C)c1)=C1/C(=O)Nc2cnc(-c3cnccc3C)cc21 [Example 23, (Z)-3-(1-((1-methyl-1H-pyrazol-4-yl)amino)ethylidene)-5-(4-methylpyridin-3-yl)-1H-pyrrolo[2,3-c]pyridin-2(3H)-one]
70.9%	79.7%	100 to 500 nM	C/C(Nc1cnn(C)c1)=C1/C(=O)Nc2cnc(-c3ccc(F)cc3F)cc21 [Example 24, (Z)-5-(2,4-Difluorophenyl)-3-(1-((1-methyl-1H-pyrazol-4-yl)amino)ethylidene)-1H-pyrrolo[2,3-c]pyridin-2(3H)-one]
87.1%	85.3%	< 50 nM	CCOc1cccc(F)c1-c1cc2c(cn1)NC(=O)/C2=C(/C)Nc1cnn(C)c1 [Example 25, (Z)-5-(2-Ethoxy-6-fluorophenyl)-3-(1-((1-methyl-1H-pyrazol-4-yl)amino)ethylidene)-1H-pyrrolo[2,3-c]pyridin-2(3H)-one]
88.8%	93.5%	< 50 nM	COc1cccc(F)c1-c1cc2c(cc1F)NC(=O)/C2=C(/C)Nc1cnn(C)c1 [Example 26]
88.4%	96.3%	< 50 nM	COc1cccc(F)c1-c1cc2c(cn1)NC(=O)/C2=C(/C)Nc1cnn(C2COC2)c1 [Example 27, (Z)-5-(2-Fluoro-6-methoxyphenyl)-3-(1-((1-(oxetan-3-yl)-1H-pyrazol-4-yl)amino)ethylidene)-1H-pyrrolo[2,3-c]pyridin-2(3H)-one]
84.8%	89.4%	< 50 nM	COc1cccc(F)c1-c1cc2c(cn1)NC(=O)/C2=C(/C)Nc1ccn(C)n1 [Example 28, (Z)-5-(2-Fluoro-6-methoxyphenyl)-3-(1-((1-methyl-1H-pyrazol-3-yl)amino)ethylidene)-1H-pyrrolo[2,3-c]pyridin-2(3H)-one]
87.4%	85.1%	< 50 nM	CCn1cc(N/C(C)=C2\C(=O)Nc3cnc(-c4c(F)cccc4OC)cc32)cn1 [Example 29, (Z)-3-(1-((1-Ethyl-1H-pyrazol-4-yl)amino)ethylidene)-5-(2-fluoro-6-methoxyphenyl)-1H-pyrrolo[2,3-c]pyridin-2(3H)-one]
89.9%	92.8%	< 50 nM	COc1cccc(F)c1-c1cc2c(cn1)NC(=O)/C2=C(/C)Nc1cnn(C2CC2)c1 [Example 30, (Z)-3-(1-((1-Cyclopropyl-1H-pyrazol-4-yl)amino)ethylidene)-5-(2-fluoro-6-methoxyphenyl)-1H-pyrrolo[2,3-c]pyridin-2(3H)-one]
86.9%	92.3%	< 50 nM	COc1cccc(F)c1-c1cc2c(cn1)NC(=O)/C2=C(/C)Nc1cnn(C(C)C#N)c1 (centres unmarked) [Example 31, (Z)-2-(4-((1-(5-(2-Fluoro-6-methoxyphenyl)-2-oxo-1H-pyrrolo[2,3-c]pyridin-3(2H)-ylidene)ethyl)amino)-1H-pyrazol-1-yl)propanenitrile]
90.3%	100%	< 50 nM	CC/C(Nc1cnn(C)c1)=C1/C(=O)Nc2cnc(-c3c(F)cccc3OC)cc21 [Example 32, (Z)-5-(2-Fluoro-6-methoxyphenyl)-3-(1-((1-methyl-1H-pyrazol-4-yl)amino)propylidene)-1H-pyrrolo[2,3-c]pyridin-2(3H)-one]
91.6%	87.8%	< 50 nM	COc1ccncc1-c1cc2c(cn1)NC(=O)/C2=C(/C)Nc1cnn(C)c1 [Example 33, (Z)-5-(4-methoxypyridin-3-yl)-3-(1-((1-methyl-1H-pyrazol-4-yl)amino)ethylidene)-1H-pyrrolo[2,3-c]pyridin-2(3H)-one]
81.7%	80%	< 50 nM	CCOc1cccc(F)c1-c1cc2c(cn1)NC(=O)/C2=C(/C)Nc1ccc(N2CCNCC2)cc1 [Example 34, (Z)-5-(2-Ethoxy-6-fluorophenyl)-3-(1-((4-(piperazin-1-yl)phenyl)amino)ethylidene)-1H-pyrrolo[2,3-c]pyridin-2(3H)-one]
88%	100%	< 50 nM	C/C(Nc1cnn(C)c1)=C1/C(=O)Nc2cnc(-c3c(F)cccc3OC(F)F)cc21 [Example 35, (Z)-5-(2-(Difluoromethoxy)-6-fluorophenyl)-3-(1-((1-methyl-1H-pyrazol-4-yl)amino)ethylidene)-1H-pyrrolo[2,3-c]pyridin-2(3H)-one]
87.8%	85.1%	< 50 nM	CCOc1cccc(F)c1-c1cc2c(cn1)NC(=O)/C2=C(/C)Nc1ccc(N2CCNCC2)nc1 [Example 36, (Z)-5-(2-Ethoxy-6-fluorophenyl)-3-(1-((6-(piperazin-1-yl)pyridin-3-yl)amino)ethylidene)-1H-pyrrolo[2,3-c]pyridin-2(3H)-one]
84.4%	91.2%	50 to 100 nM	CCOc1cccc(F)c1-c1cc2c(cn1)NC(=O)/C2=C(/C)Nc1ccc(N2CCOCC2)nc1 [Example 37, (Z)-5-(2-Ethoxy-6-fluorophenyl)-3-(1-((6-morpholinopyridin-3-yl)amino)ethylidene)-1H-pyrrolo[2,3-c]pyridin-2(3H)-one]
93.5%		< 50 nM	C/C(Nc1ccc(N2CCOCC2)nc1)=C1/C(=O)Nc2cnc(-c3cnccc3C)cc21 [Example 38, (Z)-5-(4-Methylpyridin-3-yl)-3-(1-((6-morpholinopyridin-3-yl)amino)ethylidene)-1H-pyrrolo[2,3-c]pyridin-2(3H)-one]
72.2%	86.6%	< 50 nM	COCCn1cc(N/C(C)=C2\C(=O)Nc3cnc(-c4c(F)cccc4OC)cc32)cn1 [Example 39, (Z)-5-(2-Fluoro-6-methoxyphenyl)-3-(1-((1-(2-methoxyethyl)-1H-pyrazol-4-yl)amino)ethylidene)-1H-pyrrolo[2,3-c]pyridin-2(3H)-one]
81.3%	92%	100 to 500 nM	COc1cccc(F)c1-c1cc2c(cn1)NC(=O)/C2=C(\Nc1cnn(C)c1)C(C)C [Example 40, (Z)-5-(2-Fluoro-6-methoxyphenyl)-3-(2-methyl-1-((1-methyl-1H-pyrazol-4-yl)amino)propylidene)-1H-pyrrolo[2,3-c]pyridin-2(3H)-one]
69.9%	77%	50 to 100 nM	C/C(Nc1cnn(C)c1)=C1/C(=O)Nc2cnc(-c3cnn(C)c3C)cc21 [Example 41, (Z)-5-(1,5-Dimethyl-1H-pyrazol-4-yl)-3-(1-((1-methyl-1H-pyrazol-4-yl)amino)ethylidene)-1H-pyrrolo[2,3-c]pyridin-2(3H)-one]
86.2%	89.2%	< 50 nM	COc1cccc(F)c1-c1ccc2c(n1)/C(=C(\C)Nc1cnn(C)c1)C(=O)N2 [Example 43, (Z)-5-(2-Fluoro-6-methoxyphenyl)-3-(1-((1-methyl-1H-pyrazol-4-yl)amino)ethylidene)-1H-pyrrolo[3,2-b]pyridin-2(3H)-one]
91.4%	93.1%	< 50 nM	COc1cccc(F)c1-c1cc2c(cn1)NC(=O)/C2=C(/C)Nc1cnn(C2CCOCC2)c1 [Example 44, (Z)-5-(2-Fluoro-6-methoxyphenyl)-3-(1-((1-(tetrahydro-2H-pyran-4-yl)-1H-pyrazol-4-yl)amino)ethylidene)-1H-pyrrolo[2,3-c]pyridin-2(3H)-one]
72.4%	86%	100 to 500 nM	C/C(Nc1cnn(C)c1)=C1/C(=O)Nc2cnc(-c3cnc4c(c3C)NCCO4)cc21 [Example 45, (Z)-3-(1-((1-Methyl-1H-pyrazol-4-yl)amino)ethylidene)-5-(8-methyl-2,3-dihydro-1H-pyrido[2,3-b][1,4]oxazin-7-yl)-1H-pyrrolo[2,3-c]pyridin-2(3H)-one]
85.3%	87.3%	< 50 nM	C/C(Nc1ccc(N2CCNCC2)nc1)=C1/C(=O)Nc2cnc(-c3cnccc3C)cc21 [Example 46, (Z)-5-(4-Methylpyridin-3-yl)-3-(1-((6-(piperazin-1-yl)pyridin-3-yl)amino)ethylidene)-1H-pyrrolo[2,3-c]pyridin-2(3H)-one]
83.5%	82.5%	< 50 nM	CC/C(Nc1cnn(C)c1)=C1/C(=O)Nc2cnc(-c3cnccc3C)cc21 [Example 47, (Z)-3-(1-((1-Methyl-1H-pyrazol-4-yl)amino)propylidene)-5-(4-methylpyridin-3-yl)-1H-pyrrolo[2,3-c]pyridin-2(3H)-one]
